Several values for one entry are separate records, joined by “and”; a condition that tells them apart may be missing. Identical values can stand only once. Inconclusive results and toxic doses are left out. Rule as the data show it: active = T/C of 150% or more; inactive = T/C below 125%.
System: L1210 leukemia ip in BDF1 mice, survival T/C
Assay: NCI In Vivo Anticancer Drug Screen. Data for tumor model L1210 Leukemia (intraperitoneal) in B6D2F1 (BDF1) mice
Details: endpoint: mean survival time, higher = longer survival
In short: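 Ratio derived from survival: compound-dosed mice over vehicle-dosed mice, all bearing a transplantable tumor.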

[1] = dose: 12.5 mg/kg/injection, schedule: Q01DX009 (ip), vehicle: saline
[2] = dose: 12.5 mg/kg/injection, schedule: Q04DX003 (ip), vehicle: saline
[3] = dose: 25.0 mg/kg/injection, schedule: Q01DX009 (ip), vehicle: saline
[4] = dose: 25.0 mg/kg/injection, schedule: Q04DX003 (ip), vehicle: saline
[5] = dose: 50.0 mg/kg/injection, schedule: Q01DX009 (ip), vehicle: saline
[6] = dose: 50.0 mg/kg/injection, schedule: Q04DX003 (ip), vehicle: saline
[7] = dose: 100.0 mg/kg/injection, schedule: Q01DX009 (ip), vehicle: saline with Tween-80
[8] = dose: 100.0 mg/kg/injection, schedule: Q04DX003 (ip), vehicle: saline with Tween-80
[9] = dose: 200.0 mg/kg/injection, schedule: Q01DX009 (ip), vehicle: saline with Tween-80
[10] = dose: 200.0 mg/kg/injection, schedule: Q04DX003 (ip), vehicle: saline with Tween-80
[11] = dose: 400.0 mg/kg/injection, schedule: Q04DX003 (ip), vehicle: saline with Tween-80
[12] = dose: 50.0 mg/kg/injection, schedule: Q01DX009 (ip), vehicle: saline with Tween-80
[13] = dose: 400.0 mg/kg/injection, schedule: Q01DX009 (ip), vehicle: saline with Tween-80
[14] = dose: 100.0 mg/kg/injection, schedule: Q04DX003 (ip), vehicle: saline

Measured: T/C

C[n+]1cc2ccccc2c2ccccc21
inactive: dose: 6.25 mg/kg/injection, schedule: Q01DX009 (ip), vehicle: water 104 % of control | [1] 92 % of control | dose: 12.5 mg/kg/injection, schedule: Q01DX009 (ip), vehicle: water 120 % of control | [2] 101 % of control | dose: 12.5 mg/kg/injection, schedule: Q04DX003 (ip), vehicle: water 98 % of control | [3] 112 % of control | dose: 25.0 mg/kg/injection, schedule: Q01DX009 (ip), vehicle: water 115 % of control | [4] 107 % of control | dose: 25.0 mg/kg/injection, schedule: Q04DX003 (ip), vehicle: water 107 % of control | [5] 95 % of control | dose: 50.0 mg/kg/injection, schedule: Q01DX009 (ip), vehicle: water 93 % of control | [6] 107 % of control

COC(OC)c1nc(SC)[nH]c(=O)c1C[N+](C)(C)C
inactive: [7] 102 % of control | [8] 96 % of control | [9] 92 % of control | [10] 94 % of control | [11] 91 % of control

CC(CC#N)c1ccc[nH]1 (stereo unspecified)
inactive: dose: 5.0 mg/kg/injection, schedule: Q01DX001 (ip), vehicle: carboxymethylcellulose (CMC) 115 % of control | dose: 10.0 mg/kg/injection, schedule: Q01DX001 (ip), vehicle: carboxymethylcellulose (CMC) 111 % of control | dose: 20.0 mg/kg/injection, schedule: Q01DX001 (ip), vehicle: carboxymethylcellulose (CMC) 117 % of control | dose: 40.0 mg/kg/injection, schedule: Q01DX001 (ip), vehicle: carboxymethylcellulose (CMC) 113 % of control | dose: 50.0 mg/kg/injection, schedule: Q01DX001 (ip), vehicle: carboxymethylcellulose (CMC) 109 % of control | dose: 80.0 mg/kg/injection, schedule: Q01DX001 (ip), vehicle: carboxymethylcellulose (CMC) 96 % of control | dose: 100.0 mg/kg/injection, schedule: Q01DX001 (ip), vehicle: carboxymethylcellulose (CMC) 102 % of control | dose: 200.0 mg/kg/injection, schedule: Q01DX001 (ip), vehicle: carboxymethylcellulose (CMC) 107 % of control

O=C(Nc1ccc2ccccc2c1)Nc1ccccc1F
inactive: dose: 100.0 mg/kg/injection, schedule: Q01DX009 (ip), vehicle: Klucel (hydroxypropylcellulose) (HPC) 93 % of control | dose: 200.0 mg/kg/injection, schedule: Q01DX009 (ip), vehicle: Klucel (hydroxypropylcellulose) (HPC) 104 % of control | dose: 400.0 mg/kg/injection, schedule: Q01DX009 (ip), vehicle: Klucel (hydroxypropylcellulose) (HPC) 93 % of control

CC(CO)(CI)[n+]1ccccc1 (stereo unspecified)
inactive: dose: 25.0 mg/kg/injection, schedule: Q01DX009 (ip), vehicle: saline with Tween-80 100 % of control | [12] 94 % of control | [7] 103 % of control | [8] 106 % of control

CCOC(=O)c1cc(=O)ss1
inactive: [12] 100 % of control | [7] 101 % of control | [8] 96 % of control | [9] 92 % of control | [10] 97 % of control | [13] 94 % of control | [11] 106 % of control

CC1CC(CC(=O)O)(C(=O)O)CC(C)O1 (stereo unspecified)
inactive: dose: 100.0 mg/kg/injection, schedule: Q01DX001 (ip), vehicle: Klucel (hydroxypropylcellulose) (HPC) 105 % of control | [8] 90 % of control | dose: 200.0 mg/kg/injection, schedule: Q01DX001 (ip), vehicle: Klucel (hydroxypropylcellulose) (HPC) 97 % of control | [10] 101 % of control | dose: 400.0 mg/kg/injection, schedule: Q01DX001 (ip), vehicle: Klucel (hydroxypropylcellulose) (HPC) 92 % of control | [11] 95 % of control

S=C1NC2(CCCCC2)C2=C(CCCC2)S1
inactive: [8] 100 % of control | [10] 88 % of control | [11] 96 % of control

CS(=O)(=O)OC1COC(c2ccccc2)OC1C1OC(c2ccccc2)OCC1OS(C)(=O)=O (stereo unspecified)
inactive: dose: 50.0 mg/kg/injection, schedule: Q04DX002 (ip), vehicle: Klucel (hydroxypropylcellulose) (HPC) 98 % of control | dose: 100.0 mg/kg/injection, schedule: Q04DX002 (ip), vehicle: Klucel (hydroxypropylcellulose) (HPC) 98 % of control | dose: 200.0 mg/kg/injection, schedule: Q04DX002 (ip), vehicle: Klucel (hydroxypropylcellulose) (HPC) 109 % of control

C=CCNC(=O)C(Br)(CC)CC
inactive: dose: 100.0 mg/kg/injection, schedule: Q01DX009 (ip), vehicle: saline 92 % of control | [14] 96 % of control | dose: 200.0 mg/kg/injection, schedule: Q01DX009 (ip), vehicle: saline 92 % of control | dose: 200.0 mg/kg/injection, schedule: Q04DX003 (ip), vehicle: saline 96 % of control

CCOC(=O)c1cnn2c(=O)[nH]cnc12
inactive: [8] 98 % of control | [10] 109 % of control

COC(=O)CCCCCC(O)C1CCC2OC(=O)CC21C (stereo unspecified)
inactive: [7] 95 % of control | dose: 100.0 mg/kg/injection, schedule: Q04DX003 (ip), vehicle: Klucel (hydroxypropylcellulose) (HPC) 94 % of control | [9] 95 % of control | dose: 200.0 mg/kg/injection, schedule: Q04DX003 (ip), vehicle: Klucel (hydroxypropylcellulose) (HPC) 100 % of control | [13] 91 % of control | dose: 400.0 mg/kg/injection, schedule: Q04DX003 (ip), vehicle: Klucel (hydroxypropylcellulose) (HPC) 93 % of control

CCOc1ccc(NC(=O)N(O)C2(C#N)CCCCC2)cc1
inactive: dose: 100.0 mg/kg/injection, schedule: Q01DX001 (ip), vehicle: other 93 % of control | dose: 200.0 mg/kg/injection, schedule: Q01DX001 (ip), vehicle: other 96 % of control | dose: 400.0 mg/kg/injection, schedule: Q01DX001 (ip), vehicle: other 93 % of control

CN(C)CCNCC(Cc1ccccc1)c1ccccc1 (stereo unspecified)
inactive: dose: 25.0 mg/kg/injection, schedule: Q04DX002 (ip), vehicle: saline 92 % of control | dose: 50.0 mg/kg/injection, schedule: Q04DX002 (ip), vehicle: saline 92 % of control | dose: 100.0 mg/kg/injection, schedule: Q04DX002 (ip), vehicle: saline 100 % of control and 89 % of control

[N-]=[N+]=C1C(c2ccccc2)=NC(c2nccc3ccccc23)=C1[N+](=O)[O-]
inactive: dose: 5.0 mg/kg/injection, schedule: Q01DX001 (ip), vehicle: saline 113 % of control | dose: 10.0 mg/kg/injection, schedule: Q01DX001 (ip), vehicle: saline 102 % of control | dose: 20.0 mg/kg/injection, schedule: Q01DX001 (ip), vehicle: saline 110 % of control

CCP(=O)(CC)OCCCCOP(=O)(CC)CC
inactive: dose: 75.0 mg/kg/injection, schedule: Q01DX Z (ip), vehicle: saline 104 % of control | dose: 100.0 mg/kg/injection, schedule: Q01DX Z (ip), vehicle: saline 98 % of control

O=C1c2ccccc2C(=O)N1CNc1cccc(Cl)c1
inactive: [7] 88 % of control | dose: 100.0 mg/kg/injection, schedule: Q04DX002 (ip), vehicle: saline with Tween-80 102 % of control | [9] 91 % of control | dose: 200.0 mg/kg/injection, schedule: Q04DX002 (ip), vehicle: saline with Tween-80 105 % of control | dose: 400.0 mg/kg/injection, schedule: Q04DX002 (ip), vehicle: saline with Tween-80 97 % of control

C[N+]1(C)C2CSCC1CC(O)C2 (stereo unspecified)
inactive: [1] 105 % of control | [2] 104 % of control | [3] 117 % of control | [4] 98 % of control | [5] 106 % of control | [6] 102 % of control | [14] 101 % of control

N#C/C(=C\c1ccccc1)c1cccc(Cl)c1
inactive: dose: 100.0 mg/kg/injection, schedule: Q01DX009 (ip), vehicle: other 95 % of control | dose: 200.0 mg/kg/injection, schedule: Q01DX009 (ip), vehicle: other 87 % of control

c1ccc(OB(Oc2ccccc2)Oc2ccccc2)cc1
inactive: dose: 100.0 mg/kg/injection, schedule: Q01DX001 (ip), vehicle: saline 95 % of control | dose: 200.0 mg/kg/injection, schedule: Q01DX001 (ip), vehicle: saline 95 % of control | dose: 400.0 mg/kg/injection, schedule: Q01DX001 (ip), vehicle: saline 106 % of control

Source: PubChem BioAssay AID248 (DTP/NCI, 2004)
